Measurements: patent publication US20140213576A1, “NOVEL COMPOUND USEFUL FOR THE TREATMENT OF DEGENERATIVE AND INFLAMMATORY DISEASES” (GALAPAGOS NV, priority 2013, published 2014)
pIC50, pKi: −log10 of the molar value.

Assays:
[1] = tested on: IL-6-induced STAT1 phosphorylation; test: Whole blood assay, IL-6 stimulation, phospho-STAT1 by FACS; format: cell-based; conditions: human whole blood, CD4+ cells, 9 different donors
Description: In addition, a flow cytometry analysis was performed to establish JAK1 over JAK2 compound selectivity ex vivo using human whole blood. Therefore, blood was taken from human volunteers who gave informed consent. Blood was then equilibrated for 30 min at 37° C. under gentle rocking, then aliquoted in Eppendorf tubes. Compound was added at different concentrations and incubated at 37° C. for 30 min under gentle rocking and subsequently stimulated for 20 min at 37° C. under gentle rocking with interleukin 6 (IL-6) for JAK1-dependent pathway stimulation or GM-CSF for JAK2-dependent pathway stimulation. Phospho-STAT1 and phospho-STAT5 were then evaluated using FACS analysis.
For IL-6-stimulated increase of Signal Transducers and Activators of Transcription 1 (pSTAT1) phosphorylation in white blood cell, human whole blood, drawn from human volunteers who gave informed consent, was ex vivo treated with the compound for 30 min and subsequently stimulated for 20 min with IL-6. The increase in phosphorylation of STAT1 by IL-6 in lymphocytes was measured using anti phospho-STAT1 antibody by FACS. […]
Cells are then washed once with 1×PBS and analyzed on a FACSCanto II flow cytometer (BD Biosciences).
50,000 total events were counted and Phospho-STAT1 positive cells were measured after gating on CD4+ cells, in the lymphocyte gate. […]

JAK2 = target: T1, JAK2 (Homo sapiens, UniProt O60674); test: JAK2 Ki determination assay (kinase tracer 236 binding); conditions: binding experiment, 25 nM kinase tracer 236; read-out: Ki against JAK2
T1 construct: Recombinant human JAK2 catalytic domain (amino acids 808-1132; catalog number PV4210); purchased Invitrogen PV4210
T1 sequence (O60674 808-1132): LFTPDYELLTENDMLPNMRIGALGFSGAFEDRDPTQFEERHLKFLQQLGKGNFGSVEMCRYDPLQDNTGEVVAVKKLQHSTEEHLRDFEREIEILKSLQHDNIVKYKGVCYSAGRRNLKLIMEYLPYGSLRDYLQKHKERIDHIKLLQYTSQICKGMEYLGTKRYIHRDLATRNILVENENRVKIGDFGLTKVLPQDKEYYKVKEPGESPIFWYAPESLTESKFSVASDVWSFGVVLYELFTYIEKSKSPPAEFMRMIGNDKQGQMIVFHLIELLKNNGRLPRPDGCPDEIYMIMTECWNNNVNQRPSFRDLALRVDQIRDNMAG
Description: JAK2 (Invitrogen, PV4210) was used at a final concentration of 5 nM. The binding experiment was performed in 50 mM Hepes pH 7.5, 0.01% Brij-35, 10 mM MgCl2, 1 mM EGTA using 25 nM kinase tracer 236 (Invitrogen, PV5592) and 2 nM Eu-anti-GST (Invitrogen, PV5594) with varying compound concentrations. Detection of tracer was performed according to the manufacturer's procedure.

SMILES: CCc1cc(C2CN(S(C)(=O)=O)C2)ncc1N(C)c1cc2c(cn1)ncn2C [Compound 1, [4-Ethyl-6-(1-methanesulfonyl-azetidin-3-yl)-pyridin-3-yl]-methyl-(1-methyl-1H-imidazo[4,5-d]pyridin-6-yl)-amine]
- pIC50 [1]: 6.30
- pKi (JAK2): 7.20
